Source: ChEMBL document CHEMBL3779772, “Synthesis of tetracyclic iminosugars fused benzo[e][1,3]thiazin-4-one and their HIV-RT inhibitory activity” (Bioorg Med Chem Lett, 2016)

Each molecule was assayed against Human immunodeficiency virus type 1 reverse transcriptase (Human immunodeficiency virus 1, UniProt Q72547) (assay: Inhibition of HIV1 reverse transcriptase using DIG-labeled dNTPs as substrate after 1 hr by ELISA).

Row | Structure (SMILES) | IC50 [µM]
1 | O=C1CN2C(=O)c3ccccc3S[C@H]2[C@H]2[C@H](O)[C@H](O)CN12 | 8.21
2 | C[C@H]1C(=O)N2C[C@@H](O)[C@@H](O)[C@@H]2[C@@H]2Sc3ccccc3C(=O)N12 | 9.65
3 | C[C@@H]1C(=O)N2C[C@@H](O)[C@@H](O)[C@@H]2[C@@H]2Sc3ccccc3C(=O)N12 | 2.01
4 | O=C1CN2C(=O)c3ccccc3S[C@@H]2[C@H]2[C@H](O)[C@H](O)CN12 | 0.82
5 | C[C@H]1C(=O)N2C[C@@H](O)[C@@H](O)[C@@H]2[C@H]2Sc3ccccc3C(=O)N21 | 4.21
